Compound in the experiment: Nc1ncnc2c1ncn2[C@@H]1O[C@H](COP(=O)(O)OP(=O)(O)OP(=O)(O)O)[C@@H](O)[C@H]1O [adenosine triphosphate]
Put plainly: pEC50 of ATP-induced change in protein thermal stability (2D-TPP). The essentials:
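pEC50 was obtained by fitting dose-response curves for each replicate over pairs of adjacent temperatures, and hits were assigned using permutation-based false discovery rate control. The input came from Jurkat crude lysate treated with five concentrations including vehicle (10 min, room temperature), heated at 12 temperatures from 42 to 63.9 °C for 3 min, then given NP40 and benzonase (60 min, 4 °C). After ultracentrifugation, soluble protein was quantified by TMT LC-MS/MS as median-normalised fold changes versus vehicle per temperature, across three independent experiments.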
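Further: lysate dosed with Na-ATP at 0 0.005 0.05 0.5 and 2 mM.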

UniProt Q8WXA9, sequence (Q8WXA9 whole entry): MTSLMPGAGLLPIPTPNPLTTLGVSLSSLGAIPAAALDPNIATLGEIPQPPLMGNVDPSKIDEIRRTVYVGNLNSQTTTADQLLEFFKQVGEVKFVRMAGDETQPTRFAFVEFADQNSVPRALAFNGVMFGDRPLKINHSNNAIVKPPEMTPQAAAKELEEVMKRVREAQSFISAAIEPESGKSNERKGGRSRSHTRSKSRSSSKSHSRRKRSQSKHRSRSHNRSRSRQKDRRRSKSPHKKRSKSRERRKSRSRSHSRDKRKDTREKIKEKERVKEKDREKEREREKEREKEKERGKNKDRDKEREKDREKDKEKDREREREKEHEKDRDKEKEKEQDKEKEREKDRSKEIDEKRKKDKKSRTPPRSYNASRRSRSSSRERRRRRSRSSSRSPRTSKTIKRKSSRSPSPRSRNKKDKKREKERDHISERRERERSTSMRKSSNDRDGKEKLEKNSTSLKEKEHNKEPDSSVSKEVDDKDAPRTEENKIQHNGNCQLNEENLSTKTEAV
UniProt Q96BW9, sequence (Q96BW9 whole entry): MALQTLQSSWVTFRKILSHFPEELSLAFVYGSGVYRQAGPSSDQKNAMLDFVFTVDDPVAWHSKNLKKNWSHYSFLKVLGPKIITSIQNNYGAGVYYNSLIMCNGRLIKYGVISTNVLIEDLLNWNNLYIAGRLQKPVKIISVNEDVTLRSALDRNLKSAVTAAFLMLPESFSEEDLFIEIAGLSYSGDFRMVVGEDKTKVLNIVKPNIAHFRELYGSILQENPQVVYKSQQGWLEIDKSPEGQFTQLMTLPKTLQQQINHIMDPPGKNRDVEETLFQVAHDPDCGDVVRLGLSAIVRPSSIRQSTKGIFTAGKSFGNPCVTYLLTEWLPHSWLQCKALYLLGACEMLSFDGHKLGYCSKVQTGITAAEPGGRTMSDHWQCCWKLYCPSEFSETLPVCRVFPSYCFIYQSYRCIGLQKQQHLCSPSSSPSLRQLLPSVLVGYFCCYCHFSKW
UniProt Q9BXW7, sequence (Q9BXW7 whole entry): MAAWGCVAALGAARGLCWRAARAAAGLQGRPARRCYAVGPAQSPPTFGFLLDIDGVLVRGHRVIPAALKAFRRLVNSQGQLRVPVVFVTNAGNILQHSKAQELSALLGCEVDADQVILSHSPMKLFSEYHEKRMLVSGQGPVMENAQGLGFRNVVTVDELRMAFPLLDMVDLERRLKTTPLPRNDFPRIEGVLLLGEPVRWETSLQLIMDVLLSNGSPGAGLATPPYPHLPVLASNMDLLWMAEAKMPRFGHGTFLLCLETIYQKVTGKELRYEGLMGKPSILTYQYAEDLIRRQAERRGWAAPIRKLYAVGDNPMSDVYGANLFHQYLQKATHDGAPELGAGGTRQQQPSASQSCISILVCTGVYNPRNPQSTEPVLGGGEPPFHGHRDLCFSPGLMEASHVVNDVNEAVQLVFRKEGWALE
UniProt Q9Y6E0, sequence (Q9Y6E0 whole entry, looked up): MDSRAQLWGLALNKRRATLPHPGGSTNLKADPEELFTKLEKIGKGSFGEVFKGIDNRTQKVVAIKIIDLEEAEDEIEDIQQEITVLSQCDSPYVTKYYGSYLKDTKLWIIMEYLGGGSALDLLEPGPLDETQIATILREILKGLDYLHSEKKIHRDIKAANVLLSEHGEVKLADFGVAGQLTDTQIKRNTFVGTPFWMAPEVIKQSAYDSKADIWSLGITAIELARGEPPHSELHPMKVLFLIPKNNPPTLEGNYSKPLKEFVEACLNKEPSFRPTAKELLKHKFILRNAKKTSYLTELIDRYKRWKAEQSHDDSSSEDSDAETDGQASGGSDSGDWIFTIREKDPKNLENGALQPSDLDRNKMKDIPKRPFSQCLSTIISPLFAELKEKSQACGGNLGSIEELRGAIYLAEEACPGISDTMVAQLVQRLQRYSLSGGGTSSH
UniProt Q9NYL2, sequence (Q9NYL2 whole entry, looked up): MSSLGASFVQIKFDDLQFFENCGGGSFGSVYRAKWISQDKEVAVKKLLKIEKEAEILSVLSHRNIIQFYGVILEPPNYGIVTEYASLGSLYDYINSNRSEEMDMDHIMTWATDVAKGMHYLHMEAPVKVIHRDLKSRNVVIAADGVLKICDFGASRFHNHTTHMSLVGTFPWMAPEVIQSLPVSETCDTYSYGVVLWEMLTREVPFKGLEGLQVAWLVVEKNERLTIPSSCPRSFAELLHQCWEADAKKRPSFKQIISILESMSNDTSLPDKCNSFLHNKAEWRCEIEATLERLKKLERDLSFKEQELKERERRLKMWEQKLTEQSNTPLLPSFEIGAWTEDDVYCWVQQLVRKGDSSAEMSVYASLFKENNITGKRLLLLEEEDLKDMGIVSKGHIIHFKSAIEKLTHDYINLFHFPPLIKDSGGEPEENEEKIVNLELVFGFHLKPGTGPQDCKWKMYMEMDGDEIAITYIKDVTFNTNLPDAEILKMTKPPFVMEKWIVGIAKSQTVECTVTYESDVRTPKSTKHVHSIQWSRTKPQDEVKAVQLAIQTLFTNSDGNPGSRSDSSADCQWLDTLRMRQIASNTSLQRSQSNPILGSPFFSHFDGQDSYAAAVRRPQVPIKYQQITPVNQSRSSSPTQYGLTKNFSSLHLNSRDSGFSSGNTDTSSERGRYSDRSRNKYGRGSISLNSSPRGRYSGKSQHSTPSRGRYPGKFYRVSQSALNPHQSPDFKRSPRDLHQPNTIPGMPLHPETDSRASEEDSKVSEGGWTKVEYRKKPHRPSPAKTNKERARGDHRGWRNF
UniProt Q96C57, sequence (Q96C57 whole entry): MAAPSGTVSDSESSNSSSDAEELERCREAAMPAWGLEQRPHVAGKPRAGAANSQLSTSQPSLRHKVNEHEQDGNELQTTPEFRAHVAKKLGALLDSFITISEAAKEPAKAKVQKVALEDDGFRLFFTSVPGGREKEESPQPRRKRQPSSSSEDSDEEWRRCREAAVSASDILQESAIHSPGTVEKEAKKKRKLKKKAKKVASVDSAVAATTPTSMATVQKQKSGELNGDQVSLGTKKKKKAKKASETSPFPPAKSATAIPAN
UniProt Q96G23, sequence (Q96G23 whole entry): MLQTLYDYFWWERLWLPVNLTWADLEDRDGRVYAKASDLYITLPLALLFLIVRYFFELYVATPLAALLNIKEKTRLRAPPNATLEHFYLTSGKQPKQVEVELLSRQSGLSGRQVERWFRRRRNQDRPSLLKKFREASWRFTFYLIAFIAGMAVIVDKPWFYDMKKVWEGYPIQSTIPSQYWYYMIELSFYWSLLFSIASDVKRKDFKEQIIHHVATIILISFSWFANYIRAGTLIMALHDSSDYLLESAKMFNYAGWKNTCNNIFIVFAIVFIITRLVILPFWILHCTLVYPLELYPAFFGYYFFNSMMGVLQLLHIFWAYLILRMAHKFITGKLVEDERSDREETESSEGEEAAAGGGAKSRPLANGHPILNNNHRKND
UniProt Q86U38, sequence (Q86U38 whole entry): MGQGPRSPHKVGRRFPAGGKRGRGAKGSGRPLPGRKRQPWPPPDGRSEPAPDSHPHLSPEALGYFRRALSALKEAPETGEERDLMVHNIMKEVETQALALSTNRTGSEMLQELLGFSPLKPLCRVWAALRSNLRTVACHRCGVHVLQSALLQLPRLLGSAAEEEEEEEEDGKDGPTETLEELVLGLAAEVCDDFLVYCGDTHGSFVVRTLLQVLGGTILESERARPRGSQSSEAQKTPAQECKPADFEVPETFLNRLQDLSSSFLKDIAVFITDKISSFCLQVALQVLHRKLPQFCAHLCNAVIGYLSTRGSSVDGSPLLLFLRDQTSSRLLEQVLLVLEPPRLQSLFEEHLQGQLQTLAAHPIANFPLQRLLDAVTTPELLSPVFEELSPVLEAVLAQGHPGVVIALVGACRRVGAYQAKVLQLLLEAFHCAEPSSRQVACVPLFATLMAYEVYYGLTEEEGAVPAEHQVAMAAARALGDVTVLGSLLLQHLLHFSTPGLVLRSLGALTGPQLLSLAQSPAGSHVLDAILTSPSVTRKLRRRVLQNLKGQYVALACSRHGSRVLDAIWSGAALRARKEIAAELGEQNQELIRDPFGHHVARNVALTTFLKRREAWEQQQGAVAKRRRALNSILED
UniProt Q8TBX8, sequence (Q8TBX8 whole entry): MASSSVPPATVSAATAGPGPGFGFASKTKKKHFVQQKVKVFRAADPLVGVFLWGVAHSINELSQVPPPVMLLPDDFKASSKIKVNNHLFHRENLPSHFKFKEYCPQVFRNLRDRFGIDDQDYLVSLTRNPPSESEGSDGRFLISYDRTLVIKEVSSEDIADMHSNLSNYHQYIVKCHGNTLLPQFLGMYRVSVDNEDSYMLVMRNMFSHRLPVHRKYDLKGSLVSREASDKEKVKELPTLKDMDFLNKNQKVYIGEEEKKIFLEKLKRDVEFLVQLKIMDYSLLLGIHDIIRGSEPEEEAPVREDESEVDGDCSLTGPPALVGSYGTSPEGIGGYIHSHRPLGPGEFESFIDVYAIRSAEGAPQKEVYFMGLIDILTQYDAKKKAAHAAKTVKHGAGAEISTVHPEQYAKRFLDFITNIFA
UniProt Q9NQ88, sequence (Q9NQ88 whole entry): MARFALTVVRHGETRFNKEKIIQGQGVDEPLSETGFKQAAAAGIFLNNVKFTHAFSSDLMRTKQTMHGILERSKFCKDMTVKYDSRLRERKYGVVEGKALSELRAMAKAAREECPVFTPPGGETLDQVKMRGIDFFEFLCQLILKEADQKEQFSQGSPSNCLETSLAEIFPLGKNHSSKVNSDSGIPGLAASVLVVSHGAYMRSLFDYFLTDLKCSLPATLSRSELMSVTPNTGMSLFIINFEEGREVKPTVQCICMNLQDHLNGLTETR
UniProt Q8WYJ6, sequence (Q8WYJ6 whole entry): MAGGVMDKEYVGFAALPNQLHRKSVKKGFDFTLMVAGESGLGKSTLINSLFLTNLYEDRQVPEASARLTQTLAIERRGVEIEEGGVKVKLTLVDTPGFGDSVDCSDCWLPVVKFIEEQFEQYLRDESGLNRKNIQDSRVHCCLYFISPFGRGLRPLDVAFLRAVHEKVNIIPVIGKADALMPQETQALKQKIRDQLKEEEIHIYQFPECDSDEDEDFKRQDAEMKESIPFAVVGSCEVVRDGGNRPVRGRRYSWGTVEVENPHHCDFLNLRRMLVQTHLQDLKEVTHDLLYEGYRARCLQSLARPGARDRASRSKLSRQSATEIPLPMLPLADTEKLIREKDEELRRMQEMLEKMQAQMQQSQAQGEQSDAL

For the target “UniProt Q8N9R8 (effect direction: stabilized)”, the negative logarithm of the EC50 (pEC50) was found to be 3.01.

As to “UniProt Q8N163 (effect direction: stabilized)”, the pEC50 was 2.9.

As for “UniProt Q8NBU5 (effect direction: stabilized)”, the pEC50 came out at 3.06.

Consider “UniProt Q8NI60 (effect direction: stabilized)”, for which the negative-log EC50 (pEC50) came out at 3.73.

Consider “UniProt Q8TBX8 (effect direction: stabilized)”, for which the pEC50 is 3.04.

For “UniProt Q8WXA9 (effect direction: stabilized)”, the pEC50 amounted to 3.39.

With “UniProt Q8WYJ6 (effect direction: stabilized)”, the pEC50 is under 2.7.

Regarding “UniProt Q9BQ61 (effect direction: destabilized)”, the negative-log EC50 (pEC50) amounted to 3.66.

“UniProt Q9BQ75 (effect direction: stabilized)”: the pEC50 was under 2.7.

Take “UniProt Q9BSJ8 (effect direction: stabilized)”: the pEC50 is 3.08.

As for “UniProt Q9BXW7 (effect direction: destabilized)”, the pEC50 amounted to 3.84.

In the case of “UniProt Q9BY42 (effect direction: destabilized)”, the negative logarithm of the EC50 (pEC50) was determined as 3.25.

Turning to “UniProt Q9HCP0 (effect direction: stabilized)”, the pEC50 came to 3.72.

As for “UniProt Q9NQ88 (effect direction: stabilized)”, the negative-log EC50 (pEC50) worked out at 3.46.

Regarding “UniProt Q9NQG6 (effect direction: stabilized)”, the pEC50 came out at 3.74.

For “UniProt Q9NYL2 (effect direction: stabilized)”, the negative-log EC50 (pEC50) stood at 3.65.

Turning to “UniProt Q9NYV4 (effect direction: stabilized)”, the pEC50 worked out at 2.75.

Regarding “UniProt Q9NZM5 (effect direction: destabilized)”, the pEC50 came to 2.72.

“UniProt Q9P289 (effect direction: stabilized)”: the negative-log EC50 (pEC50) was found to be 3.21.

Turning to “UniProt Q9UBD5 (effect direction: stabilized)”, the pEC50 came out at 3.47.

Regarding “UniProt Q9UH99 (effect direction: stabilized)”, the pEC50 was 3.34.

Regarding “UniProt Q9UKZ1 (effect direction: stabilized)”, the pEC50 came out at 3.4.

Consider “UniProt Q9UPN6 (effect direction: stabilized)”, for which the negative-log EC50 (pEC50) came out at 3.96.

Turning to “UniProt Q9UPN7 (effect direction: stabilized)”, the negative-log EC50 (pEC50) is 2.97.

Take “UniProt Q9Y2H1 (effect direction: stabilized)”: the pEC50 stood at 3.71.

Take “UniProt Q9Y2K2 (effect direction: stabilized)”: the negative-log EC50 (pEC50) stood at 3.43.

Consider “UniProt Q9Y2U5 (effect direction: stabilized)”, for which the negative-log EC50 (pEC50) amounted to 3.72.

Regarding “UniProt Q9Y6E0 (effect direction: stabilized)”, the negative-log EC50 (pEC50) was determined as 3.56.

Take “UniProt Q9Y530 (effect direction: stabilized)”: the negative-log EC50 (pEC50) came out at 2.97.

For the target “UniProt Q63HN8 (effect direction: stabilized)”, the pEC50 was 3.

In the case of “UniProt Q86U38 (effect direction: stabilized)”, the pEC50 is under 2.7.

In the case of “UniProt Q86V81 (effect direction: destabilized)”, the negative-log EC50 (pEC50) turned out to be 3.07.

For “UniProt Q96BW9 (effect direction: stabilized)”, the negative logarithm of the EC50 (pEC50) came to 3.16.

Take “UniProt Q96C57 (effect direction: destabilized)”: the negative-log EC50 (pEC50) came out at 4.35.

Consider “UniProt Q96EK5 (effect direction: stabilized)”, for which the pEC50 came out at 2.96.

For the target “UniProt Q96G23 (effect direction: stabilized)”, the pEC50 is 3.02.

In the case of “UniProt Q147X3 (effect direction: stabilized)”, the negative logarithm of the EC50 (pEC50) worked out at 2.88.

Consider “UniProt Q00537 (effect direction: stabilized)”, for which the pEC50 was 2.73.
